The values below come from PubChem BioAssay AID1259407 (Chemical Carcinogenesis Research Information System (CCRIS), 2018).

For this series, the system named is CCRIS mutagenicity, Ames/micronucleus/aberration tests. Description: CCRIS mutagenicity studies.
Setting [1] is: Test System: AMES SALMONELLA TYPHIMURIUM, Strain/Indicator: TA98, Metabolic Activation: NONE, Method: STANDARD PLATE.
Where [2] appears, read: Test System: AMES SALMONELLA TYPHIMURIUM, Strain/Indicator: TA100, Metabolic Activation: NONE, Method: STANDARD PLATE.
The mark [3] stands for this setting: Test System: AMES SALMONELLA TYPHIMURIUM, Strain/Indicator: TA102, Metabolic Activation: NONE, Method: STANDARD PLATE.
Where [4] appears, read: Test System: AMES SALMONELLA TYPHIMURIUM, Strain/Indicator: TA1535, Metabolic Activation: NONE, Method: STANDARD PLATE.

Activity calls are given as the source filed them. No rule for the calls is given here.

Take `CC(O)CO` (stereo unspecified) (tested in a mixture with another compound): the mutagenic call is “inactive; negative” (Test System: AMES SALMONELLA TYPHIMURIUM, Strain/Indicator: TA102, Metabolic Activation: RAT, LIVER, S-9, PHENOBARBITAL AND 5,6-BENZOFLAVONE, Method: STANDARD PLATE); “inactive; negative” (Test System: AMES SALMONELLA TYPHIMURIUM, Strain/Indicator: TA2638, Metabolic Activation: RAT, LIVER, S-9, PHENOBARBITAL AND 5,6-BENZOFLAVONE, Method: STANDARD PLATE); “active; positive” (Test System: E. COLI, Strain/Indicator: WP2 (PKM101), Metabolic Activation: RAT, LIVER, S-9, PHENOBARBITAL AND 5,6-BENZOFLAVONE, Method: STANDARD PLATE); “active; positive” (Test System: E. COLI, Strain/Indicator: WP2 UVRA (PKM101), Metabolic Activation: RAT, LIVER, S-9, PHENOBARBITAL AND 5,6-BENZOFLAVONE, Method: STANDARD PLATE).
Consider `CC(C)CC(=O)N=c1sn(C(=O)CC(C)C)c2ccc([N+](=O)[O-])cc12`, for which the mutagenic call (Test System: AMES SALMONELLA TYPHIMURIUM, Strain/Indicator: TA100, Metabolic Activation: S-9, Method: STANDARD PLATE) was “active; positive”.
For `CCC[CH2][Sn]([Cl])([CH2]CCC)[CH2]CCC`, the mutagenic call is, setting by setting: (Test System: AMES SALMONELLA TYPHIMURIUM, Strain/Indicator: TA98, Metabolic Activation: NONE, Method: SUSPENSION/PLATE) “inactive; negative”; (Test System: AMES SALMONELLA TYPHIMURIUM, Strain/Indicator: TA100, Metabolic Activation: NONE, Method: SUSPENSION/PLATE) “active; positive”.
Take `c1ccc2c(c1)ccc1nc3c4c(c5ccccc5c3cc12)O4`: under “Test System: AMES SALMONELLA TYPHIMURIUM, Strain/Indicator: TA100, Metabolic Activation: GUINEA PIG, LIVER, S-9, 3-METHYLCHOLANTHRENE, Method: STANDARD PLATE”, the mutagenic call was “active; positive”.
`CN(C)c1ccc(C(=C2C=CC(=[N+](C)C)C=C2)c2ccccc2)cc1`: the mutagenic call was “inactive; negative” (End Point: IN VIVO MICRONUCLEUS, Test System: PERIPHERAL BLOOD ERYTHROCYTES, Species: MOUSE, Strain/Sex: BIG BLUE B6C3F1/FEMALE, Route: DIET); “inactive; negative” (Test System: AMES SALMONELLA TYPHIMURIUM, Strain/Indicator: TA97A, Metabolic Activation: NONE, Method: STANDARD PLATE); “inactive; negative” (Test System: AMES SALMONELLA TYPHIMURIUM, Strain/Indicator: TA97A, Metabolic Activation: RAT LIVER S-9, 3-METHYLCHOLANTHRENE, PHENOBARBITAL, Method: STANDARD PLATE); “inactive; negative” under setting [1]; “inactive; negative” (Test System: AMES SALMONELLA TYPHIMURIUM, Strain/Indicator: TA98, Metabolic Activation: RAT LIVER S-9, 3-METHYLCHOLANTHRENE, PHENOBARBITAL, Method: STANDARD PLATE); “active; positive” (Test System: AMES SALMONELLA TYPHIMURIUM, Strain/Indicator: TA98, Metabolic Activation: RAT, LIVER, S-9, Method: STANDARD PLATE). Further, the mutagenic call is “inactive; negative” under setting [2]; “inactive; negative” (Test System: AMES SALMONELLA TYPHIMURIUM, Strain/Indicator: TA100, Metabolic Activation: RAT LIVER S-9, 3-METHYLCHOLANTHRENE, PHENOBARBITAL, Method: STANDARD PLATE); “inactive; negative” (Test System: AMES SALMONELLA TYPHIMURIUM, Strain/Indicator: TA100, Metabolic Activation: RAT, LIVER, S-9, Method: STANDARD PLATE); “active; positive” (Test System: AMES SALMONELLA TYPHIMURIUM, Strain/Indicator: TA100, Method: PREINCUBATION); “inactive; negative” under setting [3]; “inactive; negative” (Test System: AMES SALMONELLA TYPHIMURIUM, Strain/Indicator: TA102, Metabolic Activation: RAT LIVER S-9, 3-METHYLCHOLANTHRENE, PHENOBARBITAL, Method: STANDARD PLATE). The mutagenic call under setting [4] was “inactive; negative”; the mutagenic call (Test System: AMES SALMONELLA TYPHIMURIUM, Strain/Indicator: TA1535, Metabolic Activation: RAT, LIVER, S-9, Method: STANDARD PLATE) was “inactive; negative”; the mutagenic call (Test System: AMES SALMONELLA TYPHIMURIUM, Strain/Indicator: TA1537, Metabolic Activation: NONE, Method: STANDARD PLATE) was “inactive; negative”; the mutagenic call (Test System: AMES SALMONELLA TYPHIMURIUM, Strain/Indicator: TA1537, Metabolic Activation: RAT, LIVER, S-9, Method: STANDARD PLATE) is “inactive; negative”; the mutagenic call (Test System: CHO/HGPRT, Strain/Indicator: CHO-K1, Metabolic Activation: NONE, Method: STANDARD PLATE) was “inactive; negative”; the mutagenic call (Test System: CHO/HGPRT, Strain/Indicator: CHO-K1, Metabolic Activation: RAT LIVER S-9, 3-METHYLCHOLANTHRENE, PHENOBARBITAL, Method: STANDARD PLATE) was “inactive; negative”.
For the compound `Cl/C=C(\Cl)C(Cl)Cl`, the mutagenic call is “active; positive” under setting [1]; “active; positive” under setting [2]; “active; positive” (Test System: AMES SALMONELLA TYPHIMURIUM, Strain/Indicator: TA100, Metabolic Activation: RAT, LIVER, S-9, AROCLOR 1254, Method: STANDARD PLATE); “active; positive” under setting [4].
On to `O=[N+]([O-])c1ccc2c(O)cc3cccc4ccc1c2c43`, for which the mutagenic call is “active; positive” (Test System: AMES SALMONELLA TYPHIMURIUM, Strain/Indicator: TA98(1,8-DNP6), Metabolic Activation: NONE, Method: STANDARD PLATE); “active; positive” (Test System: AMES SALMONELLA TYPHIMURIUM, Strain/Indicator: TA98(1,8-DNP6), Metabolic Activation: RAT, LIVER, S-9, AROCLOR 1254, Method: STANDARD PLATE); “active; positive” under setting [1]; “active; positive” (Test System: AMES SALMONELLA TYPHIMURIUM, Strain/Indicator: TA98, Metabolic Activation: RAT, LIVER, S-9, AROCLOR 1254, Method: STANDARD PLATE); “active; positive” (Test System: AMES SALMONELLA TYPHIMURIUM, Strain/Indicator: YG1024, Metabolic Activation: NONE, Method: STANDARD PLATE); “active; positive” (Test System: AMES SALMONELLA TYPHIMURIUM, Strain/Indicator: YG1024, Metabolic Activation: RAT, LIVER, S-9, AROCLOR 1254, Method: STANDARD PLATE).
`NC1CCN(c2nc3c(cc2F)c(=O)c(C(=O)O)cn3-c2ccc(F)cc2F)C1` (stereo unspecified): the mutagenic call under setting [3] was “active; positive”.
Take `O=[Se](=O)(O)O`: the mutagenic call reads like this: under setting [4], “active; positive”; (Test System: AMES SALMONELLA TYPHIMURIUM, Strain/Indicator: TA1535, Metabolic Activation: NONE, Method: STANDARD PLATE (MEDIUM WITH TRIMETAPHOSPHATE IONS)) “active; positive”; (Test System: UDS HUMAN FIBROBLASTS, Strain/Indicator: THY INCORP (NON-S-PHASE), Metabolic Activation: MOUSE, LIVER, S-9, Method: AUTORADIOGRAPHY) “active; positive”; (Test System: UDS HUMAN FIBROBLASTS, Strain/Indicator: THY INCORP (NON-S-PHASE), Metabolic Activation: NONE, Method: AUTORADIOGRAPHY) “active; positive”.
